Where two headings read alike, the source gives them in different places.
What was measured:
[1] = tested on: Gardner lymphosarcoma (GLS); test: Transplanted tumor growth inhibition in mice, Gardner lymphosarcoma (GLS); assay type: in vivo
Method: (§1) The compounds of this invention are active in inhibiting the growth of transplanted tumors in mice and/or in prolonging the life of tumor-innoculated mice. […] The size of the tumor was measured at 7 or 11 days where the drug inhibited tumor growth. Where life-prolongation was concerned, extra life span of treated animals over that of control animals was determined.
(§2) The following table--Table 1--gives the results of experiments in which mice bearing transplanted tumors were treated successfully with a compound of this invention. In the table, column 1 gives the name of the compound; column 2, the transplanted tumor; column 3, the dose level or dose level range and the number of days the dosage was administered; and column 4, the percent inhibition of tumor growth or percent prolongation of survival time, e.g., B16 (ROS is an abbreviation for Ridgeway osteogenic sarcoma; GLS for Gardner lymphosarcoma; P 1534 (J) for a leukemia and B16 for a malignant melanoma.

[2] = tested on: Ridgeway osteogenic sarcoma (ROS); test: Transplanted tumor growth inhibition in mice, Ridgeway osteogenic sarcoma (ROS); assay type: in vivo
Method: as §1, §2

[3] = tested on: experimental malignancies; settings: animals; cited from earlier work
[4] = 0.5 mg/kg × 10 days, measured at 7 days
[5] = 0.5 mg/kg × 10 days, measured at 11 days
[6] = Mus musculus, 168 h, 0.125 mg/kg × 10 days, measured at 7 days, read-out: Percent Inhibition (of tumor growth), 7 days
[7] = Mus musculus, 168 h, 0.25 mg/kg × 10 days, measured at 7 days, read-out: Percent Inhibition (of tumor growth), 7 days
[8] = Mus musculus, 264 h, 0.125 mg/kg × 10 days, measured at 11 days, read-out: Percent Inhibition (of tumor growth), 11 days
[9] = Mus musculus, 168 h, 0.2 mg/kg × 9 days, 7 days, read-out: Percent Inhibition (of tumor growth), 7 days
[10] = Mus musculus, 264 h, 0.25 mg/kg × 10 days, measured at 11 days, read-out: Percent Inhibition (of tumor growth), 11 days
[11] = 0.25 mg/kg × 10 days, measured at 11 days
[12] = Mus musculus, 168 h, 0.5 mg/kg × 10 days, measured at 7 days, read-out: Percent Inhibition (of tumor growth), 7 days

| Compound | Percent Inhibition (of tumor growth), 7 days [1, 4] | Percent Inhibition (of tumor growth), 11 days [1, 5] | inhibition in vivo at 0.125 mg/kg [1, 6] [%] | inhibition in vivo at 0.25 mg/kg [1, 7] [%] | inhibition in vivo at 0.125 mg/kg [1, 8] [%] | activity in the treatment of experimental malignancies [3] | other results |
| --- | --- | --- | --- | --- | --- | --- | --- |
| CCC1(O)CC2CN(CCc3c([nH]c4ccccc34)C(C(=O)OC)(c3cc4c(cc3OC)N(C)C3C(O)(C(=O)NN(C)C)C(O)C5(CC)C=CCN6CCC43C65)C2)C1 (stereo not drawn) [4-Desacetyl VLB C-3 N^2,N^2-dimethylcarboxhydrazide] | Toxic | Toxic | 100 | 100 | 93 | – | – |
| CCC1(O)CC2CN(CCc3c([nH]c4ccccc34)C(C(=O)OC)(c3cc4c(cc3OC)N(C)C3C(O)(C(=O)NNCCO)C(O)C5(CC)C=CCN6CCC43C65)C2)C1 (stereo not drawn) [4-Desacetyl VLB C-3 N^2-(β-hydroxy)ethylcarboxhydrazide] | Toxic | Toxic | 77 | 100 | 37 | – | Percent Inhibition (of tumor growth), 7 days ([2]; 0.2 mg/kg × 10 days): 0%; Percent Inhibition (of tumor growth), 7 days ([2]; 0.3 mg/kg × 10 days): 14%; Percent Inhibition (of tumor growth), 7 days ([2]; 0.5 mg/kg × 10 days): Toxic; inhibition in vivo at 0.1 mg/kg ([1]; Mus musculus, 168 h, 0.1 mg/kg × 9 days, 7 days, read-out: Percent Inhibition (of tumor growth), 7 days): 0%; inhibition in vivo at 0.2 mg/kg [1, 9]: 100%; inhibition in vivo at 0.3 mg/kg ([1]; Mus musculus, 168 h, 0.3 mg/kg × 7 days, measured at 7 days, read-out: Percent Inhibition (of tumor growth), 7 days): 20%; inhibition in vivo at 0.3 mg/kg ([1]; Mus musculus, 168 h, 0.3 mg/kg × 9 days, 7 days, read-out: Percent Inhibition (of tumor growth), 7 days): 17%; inhibition in vivo at 0.5 mg/kg ([1]; Mus musculus, 168 h, 0.5 mg/kg × 7 days, measured at 7 days, read-out: Percent Inhibition (of tumor growth), 7 days): 90%; inhibition in vivo at 0.25 mg/kg [1, 10]: 40% |
| CCC1(O)CC2CN(CCc3c([nH]c4ccccc34)C(C(=O)OC)(c3cc4c(cc3OC)N(C)C3C(O)(C(=O)NNC(=O)c5ccccc5)C(O)C5(CC)C=CCN6CCC43C65)C2)C1 (stereo not drawn) [4-Desacetyl VLB C-3 N^2-benzoylcarboxhydrazide] | Toxic | Toxic | 76 | 100 | 45 | – | Percent Inhibition (of tumor growth), 11 days [1, 11]: Toxic |
| CCOC(=O)NNC(=O)C1(O)C(O)C2(CC)C=CCN3CCC4(c5cc(C6(C(=O)OC)CC7CN(CCc8c6[nH]c6ccccc86)CC(O)(CC)C7)c(OC)cc5N(C)C14)C32 (stereo not drawn) [4-Desacetyl VLB C-3 N^2-ethylcarbazylcarboxhydrazide] | – | – | – | – | – | – | Percent Inhibition (of tumor growth), 7 days ([2]; 0.2 mg/kg × 10 days): 66%; Percent Inhibition (of tumor growth), 7 days ([2]; 0.4 mg/kg × 10 days): Toxic; inhibition in vivo at 0.2 mg/kg ([1]; Mus musculus, 168 h, 0.2 mg/kg × 7 days, measured at 7 days, read-out: Percent Inhibition (of tumor growth), 7 days): 100%; inhibition in vivo at 0.4 mg/kg ([1]; Mus musculus, 168 h, 0.4 mg/kg × 7 days, measured at 7 days, read-out: Percent Inhibition (of tumor growth), 7 days): 93% |
| CCNNC(=O)C1(O)C(O)C2(CC)C=CCN3CCC4(c5cc(C6(C(=O)OC)CC7CN(CCc8c6[nH]c6ccccc86)CC(O)(CC)C7)c(OC)cc5N(C)C14)C32 (stereo not drawn) [4-Desacetyl VLB C-3 N^2-ethylcarboxhydrazide] | Toxic | Toxic | – | 100 | – | – | Percent Inhibition (of tumor growth), 11 days [1, 11]: Toxic |
| CC=NNC(=O)C1(O)C(O)C2(CC)C=CCN3CCC4(c5cc(C6(C(=O)OC)CC7CN(CCc8c6[nH]c6ccccc86)CC(O)(CC)C7)c(OC)cc5N(C)C14)C32 (stereo not drawn) [4-Desacetyl VLB C-3 N^2-ethylidenecarboxhydrazide] | – | – | – | – | – | – | Percent Inhibition (of tumor growth), 7 days ([2]; 0.2 mg/kg × 9 days): 100%; Percent Inhibition (of tumor growth), 7 days ([2]; 0.4 mg/kg × 9 days): Toxic; Percent Inhibition (of tumor growth), 7 days ([1]; 0.4 mg/kg × 9 days, 7 days): Toxic; inhibition in vivo at 0.2 mg/kg [1, 9]: 100% |
| CCC1(O)CC2CN(CCc3c([nH]c4ccccc34)C(C(=O)OC)(c3cc4c(cc3OC)N(C)C3C(O)(C(=O)NN=C(C)C)C(O)C5(CC)C=CCN6CCC43C65)C2)C1 (stereo not drawn) [4-Desacetyl VLB C-3 N^2-isopropylidenecarboxhydrazide] | – | – | – | – | – | – | Percent Inhibition (of tumor growth), 7 days ([2]; 0.05 mg/kg × 10 days): 33%; Percent Inhibition (of tumor growth), 7 days ([2]; 0.1 mg/kg × 10 days): 42%; Percent Inhibition (of tumor growth), 7 days ([2]; 0.15 mg/kg × 10 days): 74%; Percent Inhibition (of tumor growth), 7 days ([2]; 0.2-1.0 mg/kg × 10 days): Toxic |
| CCC1(O)CC2CN(CCc3c([nH]c4ccccc34)C(C(=O)OC)(c3cc4c(cc3OC)N(C)C3C(O)(C(=O)NNC)C(O)C5(CC)C=CCN6CCC43C65)C2)C1 (stereo not drawn) [4-Desacetyl VLB C-3 N^2-methylcarboxhydrazide] | – | – | 83 | – | 53 | – | Percent Inhibition (of tumor growth), 7 days ([1]; 0.25-0.5 mg/kg × 10 days, measured at 7 days): Toxic; Percent Inhibition (of tumor growth), 11 days ([1]; 0.25-0.5 mg/kg × 10 days, measured at 11 days): Toxic |
| C=NNC(=O)C1(O)C(O)C2(CC)C=CCN3CCC4(c5cc(C6(C(=O)OC)CC7CN(CCc8c6[nH]c6ccccc86)CC(O)(CC)C7)c(OC)cc5N(C)C14)C32 (stereo not drawn) [4-Desacetyl VLB C-3 N^2-methylidenecarboxhydrazide] | Toxic | Toxic | 91 | 100 | 91 | – | inhibition in vivo at 0.25 mg/kg [1, 10]: 100% |
| CCC1(O)CN2CCc3c([nH]c4ccccc34)C(C(=O)OC)(c3cc4c(cc3OC)N(C)C3C(O)(C(=O)OC)CC5(CC)C=CCN6CCC43C65)CC(C2)C1O (stereo not drawn) [4-desacetoxy-3'-hydroxyvinblastine] | – | – | – | – | – | found active in the treatment of experimental malignancies in animals | – |
| CCC1(O)CC2CN(CCc3c([nH]c4ccccc34)C(C(=O)OC)(c3cc4c(cc3OC)N(C)C3C(O)(C(=O)OC)CC5(CC)C=CCN6CCC43C65)C2)C1 (stereo not drawn) [4-desacetoxyvinblastine] | – | – | – | – | – | found active in the treatment of experimental malignancies in animals | – |
| CCC1(O)CC2CN(CCc3c([nH]c4ccccc34)C(C(=O)OC)(c3cc4c(cc3OC)N(C)C3C(O)(C(=O)NNCCOC(C)=O)C(O)C5(CC)C=CCN6CCC43C65)C2)C1 (stereo not drawn) [4-desacetyl VLB C-3 N^2-(β-acetoxy)ethylcarboxhydrazide] | – | – | 74 | 100 | 26 | – | inhibition in vivo at 0.5 mg/kg [1, 12]: 100%; inhibition in vivo at 0.25 mg/kg [1, 10]: 73%; inhibition in vivo at 0.5 mg/kg ([1]; Mus musculus, 264 h, 0.5 mg/kg × 10 days, measured at 11 days, read-out: Percent Inhibition (of tumor growth), 11 days): 100% |
| CCCC(=O)NNC(=O)C1(O)C(O)C2(CC)C=CCN3CCC4(c5cc(C6(C(=O)OC)CC7CN(CCc8c6[nH]c6ccccc86)CC(O)(CC)C7)c(OC)cc5N(C)C14)C32 (stereo not drawn) [4-desacetyl VLB C-3 N^2-butyrylcarboxhydrazide] | – | Toxic | 100 | 100 | 100 | – | inhibition in vivo at 0.5 mg/kg [1, 12]: 64%; inhibition in vivo at 0.25 mg/kg [1, 10]: 100% |
| CC[C@]1(O)C[C@@H]2CN(CCc3c([nH]c4ccccc34)[C@@](C(=O)OC)(c3cc4c(cc3OC)N(C)[C@H]3[C@@](O)(C(=O)OC)[C@H](OC(C)=O)[C@]5(CC)C=CCN6CC[C@]43[C@@H]65)C2)C1 [VLB, vincaleukoblastine] | – | – | – | – | – | found active in the treatment of experimental malignancies in animals | – |
| CCC1CC2CN(CCc3c([nH]c4ccccc34)C(C(=O)OC)(c3cc4c(cc3OC)N(C)C3C(O)(C(=O)OC)C(OC(C)=O)C5(CC)C=CCN6CCC43C65)C2)C1 (stereo not drawn) [deoxy VLB "A"] | – | – | – | – | – | found active in the treatment of experimental malignancies in animals | – |
| CCC1(O)CN2CCc3c([nH]c4ccccc34)C(C(=O)OC)(c3cc4c(cc3OC)N(C)C3C(O)(C(=O)OC)C(OC(C)=O)C5(CC)C=CCN6CCC43C65)CC(O)(C2)C1 (stereo not drawn) [leurocolombine] | – | – | – | – | – | found active in the treatment of experimental malignancies in animals | – |
| CC[C@]12CN3CCc4c([nH]c5ccccc45)[C@@](C(=O)OC)(c4cc5c(cc4OC)N(C=O)[C@H]4[C@@](O)(C(=O)OC)[C@H](OC(C)=O)[C@]6(CC)C=CCN7CC[C@]54[C@@H]76)C[C@@H](C3)[C@H]1O2 [leuroformine] | – | – | – | – | – | found active in the treatment of experimental malignancies in animals | – |
| VLB C-3 N^2 -(β-acetoxy)ethyl-carboxhydrazide | 100% | 87% | – | – | – | – | Percent Inhibition (of tumor growth), 7 days ([1]; 0.125 mg/kg × 10 days, measured at 7 days): 36%; Percent Inhibition (of tumor growth), 11 days ([1]; 0.125 mg/kg × 10 days, measured at 11 days): 35%; Percent Inhibition (of tumor growth), 7 days ([1]; 0.25 mg/kg × 10 days, measured at 7 days): 74%; Percent Inhibition (of tumor growth), 11 days [1, 11]: 55% |

Source: patent US4166810A, “Derivatives of 4-desacetyl VLB C-3 carboxyhydrazide” (priority 1978, dated 1979)
